Test results published in paper PMC9934914, “A novel class of sulphonamides potently block malaria transmission by targeting a Plasmodium vacuole membrane protein” (Disease Models & Mechanisms, 2023).

Tests used:
[1] = biological target: T1, Pfs16 (Plasmodium falciparum, UniProt Q6ZMA7); test: CETSA melt curve with immunoblot; type: biochemical; conditions: 100 µM compound
T1 construct: native full-length protein in stage V gametocytes or their Triton X-100 lysate; 157 residues, 16 kDa, one TM domain
T1 sequence (Q6ZMA7 26-157): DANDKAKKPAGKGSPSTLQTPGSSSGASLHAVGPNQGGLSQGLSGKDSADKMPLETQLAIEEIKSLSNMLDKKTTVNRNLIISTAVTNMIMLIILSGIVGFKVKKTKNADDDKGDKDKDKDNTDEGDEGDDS

[2] = biological target: T1, Pfs16; test: photoaffinity labelling of live gametocytes, pulldown, TMT LC-MS/MS and immunoblot; type: cell-based; conditions: covalent (aryl azide photo-crosslink, 254 nm); 2.5 to 10 µM probe, 37 °C

Question: Which Tm shift ([1]; pH 7.5, stage V gametocyte lysate) does the source give for `O=S(=O)(NCC1(O)CCOc2ccccc21)c1cccc(Br)c1` (single isomer, unassigned; (-)) [(−)-DDD01028076] here?
Answer: The Tm shift was “A shift in the Pfs16 melting curve was also evident in the presence of (−)-DDD01028076”.

Question: For `O=S(=O)(NCC1(O)CCOc2ccccc21)c1ccc(Br)s1` (stereo not drawn) [DDD01035881], which Tm shift ([1]; pH 7.5, activated stage V gametocyte lysate, also isothermal dose response at 78.4 °C, 1 nM to 100 µM) is on record?
Answer: Its Tm shift is “DDD01035881 treatment clearly resulted in a positive shift in the Pfs16 melting curve”.

Question: How did the “photoaffinity labelling of live gametocytes, pulldown, TMT LC-MS/MS and immunobl” value [2] turn out when `C#Cc1ccc2c(c1)C(O)(CNS(=O)(=O)c1cccc(N=[N+]=[N-])c1)CCO2` (stereo not drawn) [compound 2, probe 2] was run?
Answer: Its value is “a dose-dependent pulldown of Pfs16 was clearly observed”.
